Test results reported in patent US12077555B2, “STAT degraders and uses thereof” (Kymera Therapeutics, Inc., priority 2019, dated 2024).
Like-named read-outs stand apart in the source and are kept apart here.

Biological target: STAT3 (Homo sapiens, UniProt P40763)
Test: STAT3 HiBiT degradation assay in transfected A549 cells
Type: cell-based
Parameters: expressed in transfected cells; host or cells: A549
Procedure: Compound preparation and Cell seeding: The transfected A549 cells were harvested from dish into cell culture medium and cell numbers counted. Cells were diluted with culture medium to the desired density and 30 μL of cell suspension (about 2000 cells/well) were added into each well of a 384-well cell culture plate as designated and transferred into 37° C. 5% CO2 incubator for 24 h. Compounds were dissolved to 10 mM stock solution and 12 μL of the stock solution was transferred to a 384 LDV-plate. 3 fold, 10-point dilution was performed by transferring 4 μL compound into 8 μL DMSO using a TECAN (EVO200) liquid handler. 30 μL of diluted compound from compound source plate was transferred into the cell plate as designated by using Echo550 and transferred into 37° C. 5% CO2 incubator for 24 h.
Detection: Plates were removed from incubators and equilibrated at room temperature for 15 minutes. Nano-Glo Hibit Lytic Detection reagent (Promega Cat #N3040) was thawed and equilibrated to room temperature before the experiment. 30 μL of Nano-Glo Hibit Lytic Detection reagent was added into each well to be detected. The plates were held at room temperature for 10 min followed by reading on EnSpire.
Data analysis: The remaining activity was calculated following the formula: Remaining Activity (%)=100%×(Lumsample−LumNC)/(LumPC−LumNC). Calculate the IC50 by fitting the curve using Xlfit (v5.3.1.3), equation 201: fit=(A+((B−A)/(1+((x/C)^D)))); A: Bottom; B: Top; C: IC50; and D: Slope.
The letter codes for STAT3 DC50 include: A (<0.01 μM), B (0.01-0.1 μM), C (0.1-1.0 μM), and D (>1.0 μM).

[1] = A549, 24 h; read-out: STAT3 HiBiT A549 degradation 24 h: Average external-Abs DC50

Sequence of STAT3 (P40763 whole entry): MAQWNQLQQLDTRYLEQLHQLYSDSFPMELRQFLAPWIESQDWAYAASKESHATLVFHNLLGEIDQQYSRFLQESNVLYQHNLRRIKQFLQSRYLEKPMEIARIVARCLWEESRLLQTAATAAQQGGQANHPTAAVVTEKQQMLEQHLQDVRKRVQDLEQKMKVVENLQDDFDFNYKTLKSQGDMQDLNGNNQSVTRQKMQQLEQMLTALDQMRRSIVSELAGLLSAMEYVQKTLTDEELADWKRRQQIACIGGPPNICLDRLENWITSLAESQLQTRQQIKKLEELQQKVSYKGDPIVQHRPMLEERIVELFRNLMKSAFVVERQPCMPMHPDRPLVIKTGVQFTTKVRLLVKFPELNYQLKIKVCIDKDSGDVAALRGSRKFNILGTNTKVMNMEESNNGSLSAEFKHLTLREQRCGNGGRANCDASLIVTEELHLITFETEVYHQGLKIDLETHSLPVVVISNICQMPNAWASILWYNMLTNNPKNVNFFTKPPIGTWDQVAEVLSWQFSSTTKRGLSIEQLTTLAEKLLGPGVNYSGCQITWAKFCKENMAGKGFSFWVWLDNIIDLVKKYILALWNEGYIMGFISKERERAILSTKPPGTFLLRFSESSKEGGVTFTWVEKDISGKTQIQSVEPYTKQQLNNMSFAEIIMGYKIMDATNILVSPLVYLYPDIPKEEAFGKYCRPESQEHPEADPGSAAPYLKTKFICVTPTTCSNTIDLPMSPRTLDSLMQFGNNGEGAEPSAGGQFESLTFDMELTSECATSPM

Compound	DC50 [1]	DC50 (read-out: STAT3 HiBiT A549 degradation 24 h: Average external-Abs DC50; A549, 24 h)
Cn1c(=O)n(C2CCC(=O)NC2=O)c2cccc(CCCCCCCCC(=O)N3CC[C@H]4CC[C@@H](C(=O)N[C@@H](CCC(N)=O)C(=O)NC(c5ccccc5)c5ccccc5)N4C(=O)[C@@H](NC(=O)c4cc5cc(C(=O)P(=O)(O)O)ccc5[nH]4)C3)c21 (stereo partly drawn) [Compound I-125, 2-[[(5S,8S,10aR)-8-[[(1S)-3-carbamoyl-1-(diphenylmethylcarbamoyl)propyl]carbamoyl]-3-[9-[1-(2,6-dioxopiperidin-3-yl)-3-methyl-2-oxo-1,3-benzodiazol-4-yl]nonanoyl]-6-oxo-octahydropyrrolo[1,2-a][1,5]diazocin-5-yl]carbamoyl]-1H-indole-5-carbonylphosphonic acid]	100 to 1000 nM	–
Cc1ncsc1-c1ccc(CNC(=O)[C@@H]2C[C@@H](O)CN2C(=O)[C@@H](NC(=O)CCc2ccc3ccc(CO[C@H](C)[C@H](CCC(N)=O)NC(=O)[C@@H]4Cc5cccc6c5N4C(=O)[C@@H](NC(=O)c4cc5cc(C(=O)P(=O)(O)O)ccc5[nH]4)CC6)cc3c2)C(C)(C)C)cc1 [Compound I-126]	> 1000 nM	–
Cc1ncsc1-c1ccc(CNC(=O)[C@@H]2C[C@@H](O)CN2C(=O)[C@@H](NC(=O)CCCc2ccc3cc(CO[C@H](C)[C@H](CCC(N)=O)NC(=O)[C@@H]4Cc5cccc6c5N4C(=O)[C@@H](NC(=O)c4cc5cc(C(=O)P(=O)(O)O)ccc5[nH]4)CC6)ccc3c2)C(C)(C)C)cc1 [Compound I-127, diammonium 2-[[(2S,11S)-2-[[(3S,4R)-1-carbamoyl-4-[[6-(3-[[(2S)-1-[(2S,4R)-4-hydroxy-2-([[4-(4-methyl-1,3-thiazol-5-yl)phenyl]methyl]carbamoyl)pyrrolidin-1-yl]-3,3-dimethyl-1-oxobutan-2-yl]carbamoyl]propyl)naphthalen-2-yl]methoxy]pentan-3-yl]carbamoyl]-12-oxo-1-azatricyclo[6.4.1.0^[4,13]]trideca-4(13),5,7-trien-11-yl]carbamoyl]-1H-indole-5-carbonylphosphonate]	100 to 1000 nM	–
Cn1c(=O)n(C2CCC(=O)NC2=O)c2ccc(N3CCC(CCCC(=O)N4CC[C@H]5CC[C@@H](C(=O)N[C@@H](CCC(N)=O)C(=O)NC(c6ccccc6)c6ccccc6)N5C(=O)[C@@H](NC(=O)c5cc6cc(C(=O)P(=O)(O)O)ccc6[nH]5)C4)CC3)cc21 (stereo partly drawn) [Compound I-128, 2-[[(5S,8S,10aR)-8-[[(1S)-3-carbamoyl-1-(diphenylmethylcarbamoyl)propyl]carbamoyl]-3-(4-[1-[1-(2,6-dioxopiperidin-3-yl)-3-methyl-2-oxo-1,3-benzodiazol-5-yl]piperidin-4-yl]butanoyl)-6-oxo-octahydropyrrolo[1,2-a][1,5]diazocin-5-yl]carbamoyl]-1H-indole-5-carbonylphosphonic acid]	100 to 1000 nM	–
Cc1ncsc1-c1ccc(CNC(=O)[C@@H]2C[C@@H](O)CN2C(=O)[C@@H](NC(=O)CCC/C=C/c2ccc(CO[C@H](C)[C@H](CCC(N)=O)NC(=O)[C@@H]3Cc4cccc5c4N3C(=O)[C@@H](NC(=O)c3cc4cc(C(=O)P(=O)(O)O)ccc4[nH]3)CC5)cc2)C(C)(C)C)cc1 [Compound I-129, diammonium 2-[[(2S,11S)-2-[[(3S,4R)-1-carbamoyl-4-([4-[(1E)-5-[[(2S)-1-[(2S,4R)-4-hydroxy-2-([[4-(4-methyl-1,3-thiazol-5-yl)phenyl]methyl]carbamoyl)pyrrolidin-1-yl]-3,3-dimethyl-1-oxobutan-2-yl]carbamoyl]pent-1-en-l-yl]phenyl]methoxy)pentan-3-yl]carbamoyl]-12-oxo-1-azatricyclo[6.4.1.0^[4,13]]trideca-4(13),5,7-trien-11-yl]carbamoyl]-1H-indole-5-carbonylphosphonate]	100 to 1000 nM	–
Cc1ncsc1-c1ccc(CNC(=O)[C@@H]2C[C@@H](O)CC2C(=O)[C@@H](NC(=O)CC/C=C/c2ccc(CO[C@H](C)[C@H](CCC(N)=O)NC(=O)[C@@H]3Cc4cccc5c4N3C(=O)[C@@H](NC(=O)c3cc4cc(C(=O)P(=O)(O)O)ccc4[nH]3)CC5)cc2)C(C)(C)C)cc1 (stereo partly drawn) [Compound I-130, diammonium 2-[[(2S,11S)-2-[[(3S,4R)-1-carbamoyl-4-([4-[(1E)-4-[[(2S)-1-[(2S,4R)-4-hydroxy-2-([[4-(4-methyl-1,3-thiazol-5-yl)phenyl]methyl]carbamoyl)pyrrolidin-1-yl]-3,3-dimethyl-1-oxobutan-2-yl]carbamoyl]but-1-en-1-yl]phenyl]methoxy)pentan-3-yl]carbamoyl]-12-oxo-1-azatricyclo[6.4.1.0^[4,13]]trideca-4(13),5,7-trien-11-yl]carbamoyl]-1H-indole-5-carbonylphosphonate]	> 1000 nM	–
Cc1ncsc1-c1ccc([C@H](C)NC(=O)[C@@H]2C[C@@H](O)CN2C(=O)[C@@H](NC(=O)CCCCc2ccc(CO[C@H](C)[C@H](CCC(N)=O)NC(=O)[C@@H]3Cc4cccc5c4N3C(=O)[C@@H](NC(=O)c3cc4cc(C(=O)O)ccc4[nH]3)CC5)cc2)C(C)(C)C)cc1 [Compound I-131, Ammonium 2-[[(2S,11S)-2-[[(3S,4R)-1-carbamoyl-4-[[4-(4-[[(2S)-1-[(2S,4R)-4-hydroxy-2-[[(1S)-1-[4-(4-methyl-1,3-thiazol-5 yl)phenyl]ethyl]carbamoyl]pyrrolidin-1-yl]-3,3-dimethyl-1-oxobutan-2-yl]carbamoyl]butyl)phenyl]methoxy]pentan-3-yl]carbamoyl]-12-oxo-1-azatricyclo[6.4.1.0^[4,13]]trideca-4(13),5,7-trien-11-yl]carbamoyl]-1H-indole-5-carboxylate]	> 1000 nM	–
Cn1c(=O)n(C2CCC(=O)NC2=O)c2ccc(NCCCCCC(=O)N3CC[C@H]4CC[C@@H](C(=O)N[C@@H](CCC(N)=O)C(=O)NC(c5ccccc5)c5ccccc5)N4C(=O)[C@@H](NC(=O)c4cc5cc(C(=O)P(=O)(O)O)ccc5[nH]4)C3)cc21 (stereo partly drawn) [Compound I-132, 2-[[(5S,8S,10aR)-8-[[(1S)-3-carbamoyl-1-(diphenylmethylcarbamoyl)propyl]carbamoyl]-3-(6-[[1-(2,6-dioxopiperidin-3-yl)-3-methyl-2-oxo-1,3-benzodiazol-5-yl]amino]hexanoyl)-6-oxo-octahydropyrrolo[1,2-a][1,5]diazocin-5-yl]carbamoyl]-1H-indole-5-carbonylphosphonic acid]	100 to 1000 nM	–
Cc1ncsc1-c1ccc(CNC(=O)[C@@H]2C[C@@H](O)CN2C(=O)[C@@H](NC(=O)CCCc2cccc3cc(CO[C@H](C)[C@H](CCC(N)=O)NC(=O)[C@@H]4Cc5cccc6c5N4C(=O)[C@@H](NC(=O)c4cc5cc(C(=O)P(=O)(O)O)ccc5[nH]4)CC6)ccc23)C(C)(C)C)cc1 [Compound I-133, diammonium 2-[[(2S,11S)-2-[[(3S,4R)-1-carbamoyl-4-[[5-(3-[[(2S)-1-[(2S,4R)-4-hydroxy-2-([[4-(4-methyl-1,3-thiazol-5-yl)phenyl]methyl]carbamoyl)pyrrolidin-1-yl]-3,3-dimethyl-1-oxobutan-2-yl]carbamoyl]propyl)naphthalen-2-yl]methoxy]pentan-3-yl]carbamoyl]-12-oxo-1-azatricyclo[6.4.1.0^[4,13]]trideca-4(13),5,7-trien-11-yl]carbamoyl]-1H-indole-5-carbonylphosphonate]	100 to 1000 nM	–
Cn1c(=O)n(C2CCC(=O)NC2=O)c2cc(CCCCCCC(=O)N3CC[C@H]4CC[C@@H](C(=O)N[C@@H](CCC(N)=O)C(=O)NC(c5ccccc5)c5ccccc5)N4C(=O)[C@@H](NC(=O)c4cc5cc(C(=O)P(=O)(O)O)ccc5[nH]4)C3)ccc21 (stereo partly drawn) [Compound I-134, 2-[[(5S,8S,10aR)-8-[[(1S)-3-carbamoyl-1-(diphenylmethylcarbamoyl)propyl]carbamoyl]-3-[7-[3-(2,6-dioxopiperidin-3-yl)-1-methyl-2-oxo-1,3-benzodiazol-5-yl]heptanoyl]-6-oxo-octahydropyrrolo[1,2-a][1,5]diazocin-5-yl]carbamoyl]-1H-indole-5-carbonylphosphonic acid]	–	> 1000 nM
Cn1c(=O)n(C2CCC(=O)NC2=O)c2ccc(N3CC(CCCC(=O)N4CC[C@H]5CC[C@@H](C(=O)N[C@@H](CCC(N)=O)C(=O)NC(c6ccccc6)c6ccccc6)N5C(=O)[C@@H](NC(=O)c5cc6cc(C(=O)P(=O)(O)O)ccc6[nH]5)C4)C3)cc21 (stereo partly drawn) [Compound I-135, 2-[[(5S,8S,10aR)-8-[[(1S)-3-carbamoyl-1-(diphenylmethylcarbamoyl)propyl]carbamoyl]-3-(4-[1-[1-(2,6-dioxopiperidin-3-yl)-3-methyl-2-oxo-1,3-benzodiazol-5-yl]azetidin-3-yl]butanoyl)-6-oxo-octahydropyrrolo[1,2-a][1,5]diazocin-5-yl]carbamoyl]-1H-indole-5-carbonylphosphonic acid]	100 to 1000 nM	–
